Assays:
SARS-COV-2 PLpro = SARS-COV-2 PLpro (Severe acute respiratory syndrome coronavirus 2, UniProt P0DTD1); assay type: biochemical; conditions: Example 1; 50 μM; FIG. 2 and Table 2
Experimental: The enzymatic activity of SARS-COV-2 PLpro obtained above was measured by a colorimetry-based peptide cleavage assay, using the 6-mer peptide substrate, FRLKGG-para-nitroanilide (FG6-pNA) (purity 97% by HPLC; GL Biochem Ltd., Shanghai, China). In the cleavage assay, the 6-mer peptide substrate was cleaved at the Gly-pNA bond to release free pNA, which turned the color of the solution to yellow. The enzymatic activity was determined by continuously monitoring the absorbance at 405 nm (A405) using a 96-well microplate spectrophotometer (Epoch™ 2, Biotek) at 30° C.
An enzyme inhibition assay was performed in a 96-well microplate. Each of the wells of the microplate contained a 50 mM phosphate buffer (pH 7.4). SARS-COV-2 PLPro obtained above (0.9 μM) was added into the respective well to form an enzyme solution. […]
20 μL of FG6-pNA (1.2 mM) described above was added into the test mixture of the respective group to initiate the enzyme reaction. […] The enzymatic activity was determined by continuously monitoring the absorbance at 405 nm (A405) using a 96-well microplate spectrophotometer (Epoch™ 2, Biotek). The reaction rate was calculated accordingly, wherein the reaction rate is the slope of the absorbance A405 versus time (seconds) for a total reaction time of 300 seconds.
The inhibition percentage was calculated using the following equation: […]

H460 cancer cell line = test: In vitro cytotoxicity, Alamar blue cell viability, NCI-H460; assay type: cell-based; conditions: 24 hr
A549 cancer cell line = test: In vitro cytotoxicity, Alamar blue cell viability, A549; assay type: cell-based; conditions: 24 hr
Huh-7 cancer cell line = test: In vitro cytotoxicity, Alamar blue cell viability, Huh-7; assay type: cell-based; conditions: 24 hr
AsPC-1 cancer cell line = test: In vitro cytotoxicity, Alamar blue cell viability, AsPC-1; assay type: cell-based; conditions: 24 hr
HCT-116 cancer cell line = test: In vitro cytotoxicity, Alamar blue cell viability, HCT-116; assay type: cell-based; conditions: 24 hr
SKOV-3 cancer cell line = test: In vitro cytotoxicity, Alamar blue cell viability, SK-OV-3; assay type: cell-based; conditions: 24 hr
[1] = system: MDA-MB-231 cancer cell line; test: In vitro cytotoxicity, Alamar blue cell viability, MDA-MB-231; assay type: cell-based; conditions: 24 hr
SARS-COV-2 = conditions: Example 2; intranasal 0.35 mg/kg twice daily, 3-day treatment; FIG. 3
Text: Golden Syrian hamsters (aged 5-6 weeks old and having an average weight of about 100 g) were obtained from the National Laboratory Animal Center (Taipei, Taiwan). The hamsters were housed in an animal room under specific-pathogen-free (SPF) conditions commonly applied in the art. Furthermore, water and feed were provided ad libitum for all the hamsters. All the experiments involving the hamsters were consigned to and reviewed and approved by the Institutional Animal Care and Use Committee (IACUC) of Academia Sinica (Taiwan).
The hamsters were infected with SARS-COV-2 (obtained from P3 Lab, the Genomics Research Center, Academia Sinica; WuHan wild type) in phosphate buffered saline (PBS) through intranasal inoculation at 1×10^4 plaque-forming units (PFU) on 12:00 PM so as to establish a SARS-CoV-2 animal model. […]
After the 3-day treatment, the hamsters were sacrificed, and the lungs thereof were collected for live viral load measurement by TCID50 assay in Vero E6 cells. The virus titer was determined in terms of the 50% tissue culture infectious dose (TCID50) using the Reed-Muench method. […]

**Q.** Which “inhibition rate compared with Comparative_1 (isotretinoin only)” value (SARS-COV-2 PLpro) does the source give for CC1=C(/C=C/C(C)=C/C=C/C(C)=C\C(=O)NCCCO[C@@H]2O[C@H](CO)[C@H](O)[C@H](O)[C@H]2O)C(C)(C)CCC1 [Galactose-modified isotretinoin, (2Z,4E,6E,8E)-3,7-Dimethyl-N-(3-(((2R,3R,4S,5R,6R)-3,4,5-Trihydroxy-6-(Hydroxymethyl)Tetrahydro-2H-Pyran-2-Yl)Oxy) Propyl)-9-(2,6,6-Trimethylcyclohex-1-En-1-Yl) Nona-2,4,6,8-Tetraenamide] here?
**A.** significantly higher

**Q.** And the cell viability (H460 cancer cell line; H460, FIG. 10)?
**A.** significantly reduce

**Q.** What about the IC50 (H460 cancer cell line; Homo sapiens, NCI-H460, Non-small Cell Lung Cancer) of the same molecule?
**A.** 22.9 µM

**Q.** What about the cell viability (A549 cancer cell line; A549, FIG. 9) of the same molecule?
**A.** significantly reduce

**Q.** What about the IC50 (A549 cancer cell line; Homo sapiens, A549, Non-small Cell Lung Cancer) of the same molecule?
**A.** 21.9 µM

**Q.** And the IC50 (Huh-7 cancer cell line; Homo sapiens, Huh-7, Liver Cancer)?
**A.** 77.5 µM

**Q.** What about the cell viability (Huh-7 cancer cell line; Huh-7, FIG. 7) of the same molecule?
**A.** significantly reduce

**Q.** What about the cell viability (AsPC-1 cancer cell line; AsPC-1, FIG. 4) of the same molecule?
**A.** significantly reduce

**Q.** And the IC50 (AsPC-1 cancer cell line; Homo sapiens, ASPC1, AsPC-1, Pancreatic Cancer)?
**A.** 23 µM

**Q.** And the cell viability (HCT-116 cancer cell line; HCT-116, FIG. 6)?
**A.** significantly reduce

**Q.** What about the IC50 (HCT-116 cancer cell line; Homo sapiens, HCT-116, Colon Cancer) of the same molecule?
**A.** 123 µM

**Q.** What about the IC50 (SKOV-3 cancer cell line; Homo sapiens, SK-OV-3, Ovarian Cancer) of the same molecule?
**A.** 13.8 µM

**Q.** And the cell viability (SKOV-3 cancer cell line; SKOV-3, FIG. 8)?
**A.** significantly reduce

**Q.** What about the IC50 ([1]; Homo sapiens, MDA-MB-231, Breast Cancer) of the same molecule?
**A.** 116 µM

**Q.** What about the cell viability ([1]; MDA-MB-231, FIG. 5) of the same molecule?
**A.** significantly reduce

**Q.** What about the “TCID50 (lung virus titer) compared with isotretinoin and liposome-encapsulated isotretinoin” value (SARS-COV-2) of the same molecule?
**A.** significantly lower
